Results: ChEMBL document CHEMBL1687706, “Inhibition of human immunodeficiency virus type 1 replication in human cells by Debio-025, a novel cyclophilin binding agent” (Antimicrob Agents Chemother, 2008)
Activity calls are given as the source filed them. The calls are words filed in the database; no cut-off is given here.

How the values were obtained:
[1] = system: Human immunodeficiency virus 1; assay: Antiviral activity against HIV-1 NL4-3 infected in human TZB cells assessed as inhibition of viral entry at 0.5 to 2.5 uM after 2 hrs by RT-PCR; format: functional, organism-based
Hepatitis C virus = assay: Antiviral activity against HCV infected in human Huh 5.2 cells assessed as reduction in viral RNA level by luciferase reporter gene assay; format: functional, organism-based, Hepacivirus hominis; conditions: Huh-5-2
[2] = system: Human immunodeficiency virus 1; assay: microbe, parasite or virus in culture; conditions: Human immunodeficiency virus 1, SF2
[3] = system: Human immunodeficiency virus 1; assay: Antiviral activity against HIV1 subtype D 92UG046 infected in human PBMC assessed as inhibition of viral replication by ELISA; format: functional, organism-based; conditions: Human immunodeficiency virus 1, subtype D 92UG046
[4] = Cytotoxicity against human HeLa cells; format: cell-based; conditions: read-out: TC50 (the source's name)
Rattus norvegicus [5] = assay: Immunosuppressive activity in Sprague-Dawley rat […] model assessed as IgM level at 25 mg/kg, po administered once daily for 28 days by ELISA; format: functional
cells = conditions: Mus musculus, PBMC
[6] = system: Human immunodeficiency virus 1; assay: Antiviral activity against HIV1 subtype A 92RW016 infected in human PBMC assessed as inhibition of viral replication by ELISA; format: functional, organism-based; conditions: Human immunodeficiency virus 1, subtype A 92RW016
[7] = system: Human immunodeficiency virus 2; assay: Antiviral activity against HIV-2 isolate CDC310342 infected in human PBMC assessed as inhibition of viral replication; format: functional, organism-based; conditions: Human immunodeficiency virus 2, isolate CDC310342
[8] = Antiviral activity against HPV-33 infected in CK1 cells assessed as inhibition of viral replication after 3 days; format: functional, cell-based, Human papillomavirus type 33; conditions: human papillomavirus 33, CK1, 72 h; read-out: TC50 (the source's name)
[9] = Cytotoxicity against MDCK cells; format: cell-based, Canis lupus familiaris; conditions: dog, read-out: TC50 (the source's name)
[10] = system: Human immunodeficiency virus 1; conditions: Human immunodeficiency virus 1, 3B
Rattus norvegicus [11] = assay: Immunosuppressive activity in Sprague-Dawley rat […] model assessed as percent T lymphocytes at 25 mg/kg, po administered once daily for 28 days by flow cytometry; format: functional
[12] = system: Human immunodeficiency virus 1; assay: Antiviral activity against HIV1 subtype B TEKI infected in human PBMC assessed as inhibition of viral replication by ELISA; format: functional, organism-based; conditions: Human immunodeficiency virus 1, subtype B TEKI
Rattus norvegicus [13] = assay: Immunosuppressive activity in Sprague-Dawley rat […] model assessed as IgM level at 50 mg/kg, po administered once daily for 28 days by ELISA; format: functional
[14] = system: Human papillomavirus type 16; assay: Antiviral activity against HPV-16 infected in Caski cells assessed as inhibition of viral replication after 7 days; format: functional, Human papillomavirus 16
Human alphaherpesvirus 2 = assay: Antiviral activity against Herpes simplex virus 2 196 infected in human embryonic lung cells assessed as inhibition of viral replication; format: functional, organism-based; conditions: Human alphaherpesvirus 2, 196, lung
Rattus norvegicus [15] = assay: Immunosuppressive activity in Sprague-Dawley rat […] model assessed as percent T lymphocytes at 10 mg/kg, po administered once daily for 28 days by flow cytometry; format: functional
Influenza B virus = assay: Antiviral activity against influenza B virus infected in MDCK cells assessed as inhibition of viral replication; format: functional, organism-based
Rattus norvegicus [16] = assay: Immunosuppressive activity in Sprague-Dawley rat […] model assessed as percent T lymphocytes at 50 mg/kg, po administered once daily for 28 days by flow cytometry; format: functional
[17] = system: Human immunodeficiency virus 1; assay: Antiviral activity against HIV-1 NL4-3 cells infected in human TZB cells assessed as degradation of cDNA at 0.5 to 2.5 uM after 6 hrs postinfection by RT-PCR; format: functional, organism-based
[18] = system: Human immunodeficiency virus 1; assay: Antiviral activity against HIV1 subtype B 92BR014 infected in human PBMC assessed as inhibition of viral replication by ELISA; format: functional, organism-based; conditions: Human immunodeficiency virus 1, subtype B 92BR014
Rattus norvegicus [19] = assay: Immunosuppressive activity in Sprague-Dawley rat […] model assessed as percent T-helper cells at 10 mg/kg, po administered once daily for 28 days by flow cytometry; format: functional
Rattus norvegicus [20] = assay: Immunosuppressive activity in Sprague-Dawley rat KHL model assessed as percent cytotoxic T cells at 25 mg/kg, po administered once daily for 28 days by flow cytometry; format: functional, T-cell
[21] = system: Human immunodeficiency virus 1; assay: Antiviral activity against APV, ATV, IDV, LPV, NFV, RTV, SQV, AZT, ddI, 3TC, d4T-resistant HIV-1 MDR1385 infected in human PBMC assessed as inhibition of viral replication by ELISA; format: functional, organism-based; conditions: Human immunodeficiency virus 1, MDR1385
Feline coronavirus = assay: Antiviral activity against Feline coronavirus infected in CRFK assessed as inhibition of viral replication; format: functional, organism-based; conditions: Alphacoronavirus 1, CRFK
[22] = Antiviral activity against HPV-18 infected in human HeLa cells assessed as inhibition of viral replication after 3 days; format: functional, cell-based; conditions: human papillomavirus 18, HeLa, 72 h; read-out: TC50 (the source's name)
[23] = system: Human papillomavirus type 16; assay: Antiviral activity against HPV-16 infected in Caski cells assessed as inhibition of viral replication after 3 days; format: functional, organism-based, Human papillomavirus 16
Influenza A virus = assay: Antiviral activity against Influenza A virus H1N1 infected in MDCK cells assessed as inhibition of viral replication; format: functional, organism-based
[24] = system: Human immunodeficiency virus 1; assay: Antiviral activity against HIV1 subtype B WEJO infected in human PBMC assessed as inhibition of viral replication by ELISA; format: functional, organism-based; conditions: Human immunodeficiency virus 1, subtype B WEJO
Human betaherpesvirus 5 [25] = assay: Antiviral activity against Human cytomegalovirus AD169 infected in human embryonic lung cells assessed as reduction in viral yield; format: functional, organism-based; conditions: Human betaherpesvirus 5, AD169, lung
[26] = system: Human immunodeficiency virus 1; assay: Antiviral activity against HIV-1 NL4-3 infected in human TZB cells assessed as inhibition of accumulation of late viral transcripts at 0.5 to 2.5 uM by RT-PCR; format: functional, organism-based
[27] = system: Human immunodeficiency virus 1; assay: Antiviral activity against HIV1 subtype B JR-CSF infected in human PBMC assessed as inhibition of viral replication by ELISA; format: functional; conditions: Human immunodeficiency virus 1, JRCSF ISOLATE
[28] = system: Human immunodeficiency virus 1; assay: Antiviral activity against HIV1 subtype F 93BR020 infected in human PBMC assessed as inhibition of viral replication by ELISA; format: functional, organism-based; conditions: Human immunodeficiency virus 1, subtype F 93BR020
Hepatitis B virus = assay: Antiviral activity against HBV infected in human hepAD38 cells assessed as inhibition of viral replication; format: functional, organism-based
[29] = system: Human immunodeficiency virus 1; assay: Antiviral activity against HIV-1 NL4-3 infected in human TZB cells assessed as inhibition of accumulation of early viral transcripts at 0.5 to 2.5 uM by RT-PCR; format: functional, organism-based
Human betaherpesvirus 5 [30] = assay: Antiviral activity against Human cytomegalovirus Davis infected in human embryonic lung cells assessed as reduction in viral yield; format: functional, organism-based; conditions: Human betaherpesvirus 5, Davis
[31] = system: Vesicular stomatitis virus; assay: Antiviral activity against VSV infected in human embryonic lung cells assessed as inhibition of viral replication; format: functional, organism-based
[32] = system: Human immunodeficiency virus 1; assay: Antiviral activity against HIV1 subtype G Jv1083 infected in human PBMC assessed as inhibition of viral replication by ELISA; format: functional, organism-based; conditions: Human immunodeficiency virus 1, subtype G Jv1083

C/C=C/C[C@@H](C)[C@@H](O)[C@H]1C(=O)N[C@@H](CC)C(=O)N(C)[C@H](C)C(=O)N(CC)[C@@H](C(C)C)C(=O)N[C@@H](C(C)C)C(=O)N(C)[C@@H](CC(C)C)C(=O)N[C@@H](C)C(=O)N[C@H](C)C(=O)N(C)[C@@H](CC(C)C)C(=O)N(C)[C@@H](CC(C)C)C(=O)N(C)[C@@H](C(C)C)C(=O)N1C [ALISPORIVIR]
inhibition [1]: inactive | IC50 (Hepatitis C virus): 220 nM | IC50 [2]: 63 nM | IC50 [3]: 10 nM | CC50 [4]: 8200 nM | deltaA (Rattus norvegicus [5]): 0.78 | IC50 (cells): 820 nM | IC50 [6]: 8 nM | IC50 [7]: 58 nM | CC50 [8]: 400 nM | CC50 [9]: 9900 nM | IC50 [10]: 64 nM | Activity (Rattus norvegicus [11]): 53.4% | IC50 [12]: 4410 nM | deltaA (Rattus norvegicus [13]): 0.67 | TC50 [14]: 600 nM | IC50 (Human alphaherpesvirus 2): > 25000 nM | Activity (Rattus norvegicus [15]): 52.4% | IC50 (Influenza B virus): > 9900 nM | Activity (Rattus norvegicus [16]): 50% | Activity [17]: Active | IC50 [18]: 5650 nM | Activity (Rattus norvegicus [19]): 29.8% | Activity (Rattus norvegicus [20]): 18% | IC50 [21]: 58 nM | IC50 (Feline coronavirus): 2200 nM | CC50 [22]: 6500 nM | TC50 [23]: 1200 nM | IC50 (Influenza A virus): > 9900 nM | IC50 [24]: 15 nM | IC50 (Human betaherpesvirus 5 [25]): 8900 nM | inhibition [26]: Active | IC50 [27]: 15 nM | IC50 [28]: 6250 nM | IC50 (Hepatitis B virus): 4100 nM | inhibition [29]: inactive | IC50 (Human betaherpesvirus 5 [30]): 6100 nM | IC50 [31]: > 25000 nM | IC50 [32]: 5530 nM
